The values that follow come from patent US9763934B2, “Synergistic effect of poloxamer-based composition and itraconazole on fungus and yeast” (Professional Compounding Centers of America (PCCA), priority 2014, dated 2017).

This assay concerns C. albicans ATCC 90028 biofilm. The assay can be described thus: Antifungal biofilm susceptibility testing (MBIC), NCCLS M27-A broth microdilution, CellTiter 96 viability readout. The format is cell-based, Candida albicans. The protocol:
Materials: Itraconazole EP Micronized (lot number C149307) and PCCA Formula #10342 (4 g of Itraconazole EP Micronized +37.574 g of Poloxamer composition) were provided by PCCA (Houston, Tex., USA) as powders. Itraconazole and PCCA Formula #10342 were prepared on the day of the assay. Fluconazole and amphotericin B were obtained as powders and stored at 4° C. […] Strain: Candida albicans isolate ATCC 90028 was obtained from American Type Culture Collection (Manassas, Va.), and used in the course of this study. Methods: To determine antimicrobial activity of itraconazole and micronized poloxamer composition 202 against biofilms of Candida albicans, an antifungal biofilm susceptibility testing was developed in conditions where a Minimum Biofilm Inhibitory Concentration (MBIC) of itraconazole in a micronized poloxamer composition 202, micronized poloxamer excipient, itraconazole, fluconazole and amphotericin B was measured for the C. albicans biofilm according to the NCCLS M27-A broth microdilution method (NCCLS, 1997). The testing medium used for growing was RPMI 1640 (American Biorganics, Inc., […].) supplemented with L-glutamine (Sigma Aldrich®). […] Cell viability was determined by using CellTiter 96® Non-Radioactive Cell Proliferation Assay (Promega, 2013).

The compound `C[C@@H]1[C@H](O)[C@@H](C)/C=C/C=C/C=C/C=C/C=C/C=C/C=C/[C@H](O[C@@H]2O[C@H](C)[C@@H](O)[C@H](N)[C@@H]2O)C[C@@H]2O[C@](O)(C[C@@H](O)C[C@@H](O)[C@H](O)CC[C@@H](O)C[C@@H](O)CC(=O)O[C@H]1C)C[C@H](O)[C@H]2C(=O)O` [Amphotericin B, amphotericin B] gave an MBIC of 0.5 µg/mL. Further, the “Minimum Biofilm Inhibitory Concentration” value (48 h at 35° C., lowest concentration giving 50% reduction of fungal growth, combination value expressed as concentration of itraconazole) was 0.5 µg/mL.
